Publication PMC10909971, “Glucose 6‐phosphate dehydrogenase variants increase NADPH pools for yeast isoprenoid production” (FEBS Open Bio, 2024)
Where two headings read alike, the source gives them in different places. Each block holds one molecule with its values, some of them ahead of it.

Key:
[1] = test system: T1, G6PD-L-6PGL (fusion with linker); settings: read-out: G6PD-L-6PGL, 100 mM Tris-HCl pH 8.0, 10 mM MgCl2, 25 °C, G6PD domain
T1 construct: gene ZWF1

[2] = test system: T2, G6PD-6PGL (linker-less fusion); settings: read-out: G6PD-6PGL, 100 mM Tris-HCl pH 8.0, 10 mM MgCl2, 25 °C, G6PD domain
T2 construct: gene ZWF1

[3] = substrate: NC(=O)c1ccc[n+]([C@@H]2O[C@H](COP(=O)(O)OP(=O)(O)OC[C@H]3O[C@@H](n4cnc5c(N)ncnc54)[C@H](OP(=O)(O)O)[C@@H]3O)[C@@H](O)[C@H]2O)c1; experiment: purified protein; settings: G6P held constant, 100 mM Tris-HCl pH 8.0, 10 mM MgCl2, 25 °C

- Km ([1]; G6P held constant): 5.6 ± 0.2 µM
- Km ([2]; G6P held constant): 2600 ± 400 nM
Molecule: NC(=O)c1ccc[n+]([C@@H]2O[C@H](COP(=O)(O)OP(=O)(O)OC[C@H]3O[C@@H](n4cnc5c(N)ncnc54)[C@H](OP(=O)(O)O)[C@@H]3O)[C@@H](O)[C@H]2O)c1 [NADP^+]

- Km ([1]; NADP+ held constant): 2.3 ± 0.2 µM
- Km ([2]; NADP+ held constant): 600 nM
Molecule: O=P(O)(O)OC[C@H]1OC(O)[C@H](O)[C@@H](O)[C@@H]1O (stereo partly drawn) [glucose 6‐phosphate]

B1: ScG6PD (G6PD, ZWF1) (Saccharomyces cerevisiae S288C) (protein)
chain: MSEGPVKFEKNTVISVFGASGDLAKKKTFPALFGLFREGYLDPSTKIFGYARSKLSMEEDLKSRVLPHLKKPHGEADDSKVEQFFKMVSYISGNYDTDEGFDELRTQIEKFEKSANVDVPHRLFYLALPPSVFLTVAKQIKSRVYAENGITRVIVEKPFGHDLASARELQKNLGPLFKEEELYRIDHYLGKELVKNLLVLRFGNQFLNASWNRDNIQSVQISFKERFGTEGRGGYFDSIGIIRDVMQNHLLQIMTLLTMERPVSFDPESIRDEKVKVLKAVAPIDTDDVLLGQYGKSEDGSKPAYVDDDTVDKDSKCVTFAAMTFNIENERWEGVPIMMRAGKALNESKVEIRLQYKAVASGVFKDIPNNELVIRVQPDAAVYLKFNAKTPGLSNATQVTDLNLTYASRYQDFWIPEAYEVLIRDALLGDHSNFVRDDELDISWGIFTPLLKHIERPDGPTPEIYPYGSRGPKGLKEYMQKHKYVMPEKHPYAWPVTKPEDTKDN
- Km [3]: 0.6 ± 0.1 µM

B2: ScG6PD (G6PD, ZWF1) (Saccharomyces cerevisiae S288C; N403D) (protein)
chain: MSEGPVKFEKNTVISVFGASGDLAKKKTFPALFGLFREGYLDPSTKIFGYARSKLSMEEDLKSRVLPHLKKPHGEADDSKVEQFFKMVSYISGNYDTDEGFDELRTQIEKFEKSANVDVPHRLFYLALPPSVFLTVAKQIKSRVYAENGITRVIVEKPFGHDLASARELQKNLGPLFKEEELYRIDHYLGKELVKNLLVLRFGNQFLNASWNRDNIQSVQISFKERFGTEGRGGYFDSIGIIRDVMQNHLLQIMTLLTMERPVSFDPESIRDEKVKVLKAVAPIDTDDVLLGQYGKSEDGSKPAYVDDDTVDKDSKCVTFAAMTFNIENERWEGVPIMMRAGKALNESKVEIRLQYKAVASGVFKDIPNNELVIRVQPDAAVYLKFNAKTPGLSNATQVTDLDLTYASRYQDFWIPEAYEVLIRDALLGDHSNFVRDDELDISWGIFTPLLKHIERPDGPTPEIYPYGSRGPKGLKEYMQKHKYVMPEKHPYAWPVTKPEDTKDN
- Km [3]: 0.8 ± 0.1 µM
